Experimental data: patent US20240327372A1, “PREPARATION OF PHENE[…] […] STEREOISOMERS THEREOF AND PRECURSORS THEREOF” (priority 2022, published 2024)

Legend:
[1] = target: dopamine transporter (DAT) (Rattus norvegicus (Rat), UniProt P23977); experiment: Competition radioligand binding, [3H]WIN35428, rat brain membranes; conditions: DA transporter
Description: (§1) Rat brain (Sprague Dawley, 200-250 g) synaptosomes were isolated from midbrain and hindbrain for serotonin transporter assays, striatum for dopamine transporter assays, and hippocampus plus overlying occipital cortex for norepinephrine transporter assays. Radioligands used were: [^3H]Citalopram 81.4 Ci/mmol (PerkinElmer NET1039250UC; Lot No. 2960876). [^3H]WIN35428 82.8 Ci/mmol (PerkinElmer NET1033250UC; Lot No. 2891473). [^3H]Nisoxetine 79.2 Ci/mmol (PerkinElmer NET1084250UC; Lot No. 2970324). Non-specific compounds used were: Citalopram (Tocris Bioscience 1427). JHW007 (Tocris Bioscience 4351). Nomifensine (Abcam ab146004). Test Compounds for the study were: racemic methylone HCl; (R)-methylone HCl; (S)-methylone HCl.
(§2) For membrane preparations, rat brains were dissected, tissue was added to ice-cold lysis buffer (50 mM Tris HCl; 5 mM MgCl2; 5 mM EDTA; protease inhibitor cocktail) and homogenized. The homogenate was centrifuged at 100×g for 2 minutes and the supernatant divided into polypropylene Eppendorf tubes. The supernatants were centrifuged at 17,000×g for 10 minutes at 4° C. to re-pellet the cell lysate. The pellet was resuspended in fresh wash buffer (50 mM Tris-HCl; 5 mM MgCl2; 5 mM EDTA) and centrifuged a third time at 17,000×g for 10 minutes at 4° C. The pellet was resuspended in wash buffer containing 10% sucrose as a cryoprotectant, divided into aliquots (0.3 mL) and stored at −80° C. A sample of the homogenate was analyzed for protein content using the MERCK® BCA assay. On the day of the assay, the membrane preparation was thawed and the pellet resuspended in final assay buffer.
(§3) Competition binding assays were carried out in 96-well polypropylene plates in a final volume of 250 μL per well. To each well was added 150 μL membranes, 50 μL of test compound, non-specific compound or buffer, and 50 μL radioligand solution in buffer. The plate was incubated at 30° C. for 90 minutes with gentle agitation. The incubation was stopped by vacuum filtration onto presoaked (wash buffer with PEI) GF/C filters using a 96-well FILTERMATE™ harvester, followed by 5 washes with ice-cold wash buffer. Filters were then dried under a warm air stream, sealed in polyethylene, scintillation cocktail added, and the radioactivity counted in a WALLAC® TriLux 1450 MicroBeta counter. For each concentration of drug, non-specific binding was subtracted from total binding to give specific binding. Data was fitted using the non-linear curve fitting routines in PRISM® (Graphpad Software Inc) to determine IC50. Ki was subsequently calculated using the ChengPrusoff equation.

NET [2] = experiment: NE release study; format: biochemical
[3] = target: serotonin transporter (SERT) (Rattus norvegicus (Rat), UniProt P31652); experiment: Competition radioligand binding, [3H]Citalopram, rat brain membranes; conditions: 5-HT transporter
Description: as §1, §2, §3

cardiac ion channels = experiment: In vitro cardiovascular safety screening test (ion channel panel, overall); format: cell-based, human; conditions: whole panel
Experimental: An in vitro cardiovascular safety screening test was run to investigate the effects of racemic methylone and two methylone stereoisomers ((R)-methylone and (S)-methylone) on selected ion channels critically linked to cardiovascular function and activity.
Electrophysiological assays were conducted to profile three compounds ((R)-methylone, (S)-methylone, or racemic methylone) for activities on the ion channel targets specified below using the Qube electrophysiological platform. Where presented, IC50 values were determined by a non-linear, least squares regression analysis. Reference standards were run as an integral part of each assay to ensure the validity of the results obtained.
Ion Channels tested were Eurofins Panel Part Number: CPROFullQB2DR Voltage-Gated Sodium: HEK-Nav1.5 (Peak), HEK-Nav1.5 (Late, Antagonist) Voltage-Gated Potassium: HEK-Kv4.3/KChIP2, CHO-hERG, CHO-KCNQ1/minK Voltage-Gated Calcium: HEK-Cav1.2 Inward-Rectifying Voltage-Gated Potassium: HEK-Kir2.1.

[4] = tested on: rat forced swim test (FST); experiment: Rat forced swim test (FST); format: in vivo; conditions: 10 mg/kg, IP
Experimental: All FST studies are performed and scored by an experimenter blind to treatment group and according to standard protocols. Briefly, rats are placed in a circular plexiglass container filled with water. Water temperature is maintained at 22-25° C. and changed for every animal. Day 1 (Training) consists of a 15 min acclimation trial, and Day 2 (Testing, 24 h later) consists of the 5 min test. A time sampling procedure is employed where animals are observed every 5 seconds for the duration of the test session (60 counts or 5 minutes) and scored for immobility (defined as the failure to struggle), swimming (defined as a circular movement around the tank), or climbing (defined as an upwards escape behavior). Data are expressed as the percent of the testing session (e.g., the number of immobility counts divided by 60). A p-value less than 0.05 indicates statistical significance after typical statistical analyses (e.g., unpaired t-test or ANOVA).
To determine that the prodrug and/or enantiomer has an antidepressant-like effect and to compare it to methylone, rats are treated with each compound 30 min prior to testing. Additional tests are run 24, 72, 168 hours post-dose or longer.
Racemic methylone (10 mg/kg, IP) has a maximal antidepressant-like effect in the rat forced swim test (FST), reducing immobility by nearly 100% compared to vehicle treated controls. To determine whether one enantiomer of methylone could mimic the robust antidepressant-like effect of racemic methylone, rats were treated with a single dose of racemic methylone, (R)-methylone, (S)-methylone (all 10 mg/kg, IP) or vehicle 30 min before testing in the FST. […] Therefore, all of the activity of methylone appears to be driven by the activity of one enantiomer ((S)-methylone).

SERT [5] = target: T1, SERT (Rattus norvegicus (Rat), UniProt P31652); experiment: [3H]5-HT uptake inhibition in rat brain synaptosomes; format: biochemical
Experimental: (§4) Materials used were: Neurotransmitters [3H]5-HT (PerkinElmer, NET498001MC) [^3H]Dopamine (PerkinElmer, NET673250UC) [^3H]Norepinephrine (PerkinElmer, NET377250UC); Test Compounds Racemic methylone HCl (Merck, M-140); (R)-methylone HCl (Pisgah Labs); (S)-methylone HCl (Pisgah Labs); Reference Compounds Citalopram (Tocris Bioscience 1427). JHW007 (Tocris Bioscience 4351). Nomifensine (Abcam ab146004).
(§5) Synaptosomes were prepared from Sprague Dawley (200-250 g) rat brain regions (hippocampus for NE, striatum for DA and midbrain for 5-HT) using standard protocols. Tissues were dissected, added to sucrose buffer (0.32 M), homogenized with a dounce-homogenizer and centrifuged at 100×g to remove cells and debris. Supernatant was collected and centrifuged 17,000×g for 10 minutes at 4° C. to pellet the synaptosomes. The pellet was resuspended in fresh assay buffer.
(§6) Uptake assays were carried out in 96-well plates in a final volume of 250 μL per well. To each well was added 150 μL synaptosomes, 50 μL test, non-specific compound or buffer alone. The plate was incubated at 30° C. for 30 minutes with gentle agitation. 50 μL radiolabeled neurotransmitter in buffer was then added to each well to initiate the uptake. The plate was incubated at 30° C. for a further 5 minutes with gentle agitation. The incubation was stopped by vacuum filtration onto presoaked GF/C filters using a 96-well FilterMate™ harvester, followed by 3 washes with ice-cold wash buffer. Filters were then dried under a warm air stream, sealed in polyethylene, scintillation cocktail added, and the radioactivity counted in a Wallac® TriLux 1450 MicroBeta counter.
(§7) For each concentration of drug, non-specific uptake was subtracted from total uptake to give specific uptake. Data was fitted using the non-linear curve fitting routines in Prism® (Graphpad Software Inc) to determine IC50.

DAT [6] = target: T2, DAT (Rattus norvegicus (Rat), UniProt P23977); experiment: [3H]Dopamine uptake inhibition in rat brain synaptosomes; format: biochemical; conditions: DA
Experimental: as §4, §5, §6, §7

[7] = target: norepinephrine transporter (NET); experiment: Competition radioligand binding, [3H]Nisoxetine, rat brain membranes; conditions: NE transporter
Description: as §1, §2, §3

SERT [8] = target: T1, SERT; experiment: 5-HT release study; format: biochemical
NET [9] = experiment: [3H]Norepinephrine uptake inhibition in rat brain synaptosomes; format: biochemical; conditions: NE
Experimental: as §4, §5, §6, §7

DAT [10] = target: T2, DAT; experiment: DA release study; format: biochemical
mouse model of PTSD = conditions: 7.5 mg/kg, 30 minutes prior to extinction training; Young et al. 2015; cited from earlier work
[11] = self-administration, healthy volunteers; cited from earlier work

Structure (SMILES)	IC50 [1] [µM]	Ki ([1]; Cheng-Prusoff) [µM]	EC50 (NET [2]) [nM]	IC50 [3] [µM]	Ki ([3]; Cheng-Prusoff) [µM]	Effect on the cardiac ion channels tested (cardiac ion channels)	Reduction of immobility compared to vehicle treated controls [4] [%]	IC50 (SERT [5]) [nM]	IC50 (DAT [6]) [nM]	IC50 [7] [µM]	Ki ([7]; Cheng-Prusoff) [nM]	EC50 (SERT [8]) [nM]	IC50 (NET [9]) [nM]	EC50 (DAT [10]) [µM]	Reduced freezing compared to saline injected controls (extinction recall) (mouse model of PTSD) [%]	Systolic and diastolic blood pressure [11]
CNC(C)C(=O)c1ccc2c(c1)OCO2 (racemic) [Racemic methylone]	7.11	3.53	330	12.3	7.44	do not directly inhibit the activity of cardiac channels	~100	811	1430	3.1	1460	620	355	4.79		
CNC(C)Cc1ccc2c(c1)OCO2 (stereo not shown) [MDMA, 3,4-methylenedioxymethamphetamine, reference compound]															35	significant increase
